From publication PMC11607671, “Antiviral activity of cathelicidins against porcine epidemic diarrhea virus (PEDV): Mechanisms, and efficacy” (Virus Research, 2024)

Legend:
Type in all cases: cell-based, Porcine epidemic diarrhea virus
PEDV-GFP [1] = test: Post-incubation (post-treatment) antiviral assay; conditions: Vero cells exposed to PEDV-GFP 2 h, washed, then AMPs for 3 h; FC; Fig. 7B, C
Protocol: In post-incubation assays (Fig. 7A), cells were initially exposed to the virus for 2 h, washed 2times with PBS and subsequently treated with AMPs for 3 h Both for pre- and post-infection assays, after the respective incubation periods, the cells were assessed using fluorescence microscopy and quantified using FC as described above.
Fig. 7 Effects of AMPs in post-incubation assay. A) Design and setup of post-incubation assay. B) The percentage of GFP-positive cells was quantified using FC during post-incubation. C) The FC histogram illustrates the fluorescence intensity of GFP after treatment with CATH-B1 and LL-37. […] The reported values represent the mean ± SD derived from three independent experiments performed in triplicate.

PEDV [2] = test: Co-incubation antiviral assay, PEDV MOI=1, Vero cells; conditions: Fig. 4B
Protocol: (§1) In order to determine the effect of AMPs on the infectivity of PEDV, Vero cells (5 × 10^5 per well) were seeded in 12-well plates and cultured overnight at 37 °C, 5% CO2. In a co-incubation of virus and AMPs experiments (Fig. 2A), the mixture of AMPs (0–10 µM) and PEDV-GFP (MOI= 0.3) in a 1 mL volume of DMEM (P/S + 10% FCS) was added to the cells and incubated at 37 °C. After 2 h, the supernatant was replaced with fresh DMEM (P/S + 10% FCS) and incubated for 24 h. Subsequently, the cells were washed 2 times with flow cytometry buffer (500 mL PBS+ 10 mL FCS+ 250 µL of 10% NaN3) and were imaged with an EVOS M5000 Imaging System for semi-quantitative determination of infectivity. Eventually, cells were carefully detached by 2.5% trypsin, stained with ViaKrome 808 fixable viability dye (1:1000), and incubated for 30 min at 4 °C. Following washing, the cells were fixed using 50 µL of 4% PFA for 10 min, and a minimum of 1 × 10^5 cells were acquired using the CytoFLEX LX Flow Cytometer (FC)(Beckman Coulter, USA). Data was analyzed using FlowJo software v.10.6 (Flowjo LCC, Ashland, OR, USA).
Fig. 4 The inhibitory effect of AMPs on PEDV at MOI=1. A) Fluorescence microscopy image was captured at 20 × magnification to visualize the GFP fluorescence signal in Vero cells following co-incubation of AMPs and PEDV at MOI=1. B) The percentage of GFP-positive cells was determined by FC after 3 h co-incubation of PEDV and AMPs. C) The fluorescence intensity of GFP across three different concentrations of LL-37 was illustrated through the FC histogram. […] The reported values in 4A represent the mean ± SD of three independent experiments performed in duplicate **** p < 0.0001.

PEDV [3] = test: Peptide-virus interaction assay with Capto Core 700 beads; conditions: Fig. 8
Protocol: In order to determine if CATH-B1 and LL-37 physically interact with PEDV, Capto Core 700 beads (GE Healthcare Life Sciences, Chicago, IL, USA) were used to selectively eliminate unbound AMPs. PEDV were pre-incubated with or without CATH-B1/LL-37 in Opti-MEM medium, and Capto Core 700 beads were added, followed by a 1 h incubation at 4 °C while slowly rotating. After centrifugation, supernatants were collected and applied to the cells. To make sure the AMP was removed effectively, we tested samples with peptides but no virus using the same process. The collected supernatants were used to inoculate cells, and the number of infected cells was determined using the described method.
Fig. 8 Interactions between CATH-B1 and LL-37 with PEDV. CATH-B1/LL-37 were pre-incubated with the virus, and subsequently, the peptide and virus were separated using Capto Core beads. The supernatant containing the separated virus was then employed to infect Vero cells. […] The data is presented as the mean ± SEM of three independent experiments in duplicate, each with triplicate samples. **** p < 0.0001.

PEDV-GFP [4] = test: Co-incubation antiviral assay of the extended AMP panel and of FL LL-37; conditions: co-incubation with PEDV-GFP, 1 and 5 µM, 3 h, FC; two independent experiments in duplicate; Fig. 5
Protocol: as §1
This extended panel of AMPs encompassed chicken-derived peptides (D-CATH-2, l-CATH-2), mouse-derived peptide (CRAMP), horse-derived peptides (eCATH-1, eCATH-3), parrot-derived peptides (ER2, ER3, AG3), and synthetic peptides (CR165, CR174), all of which were readily accessible within our laboratory. As previously described, these AMPs were co-incubated with PEDV.
Fig. 5 Antiviral effects of a diverse group of AMPs on PEDV infection. Vero cells were incubated for 3 h with a combination of PEDV-GFP and AMPs, as described previously. FC was utilized to assess the inhibitory impact of AMPs.
Figure S4. The antiviral activity of FL LL-37 (fluorogenic LL-37 ) and unlabeled LL-37. Peptides were co-incubated at 1 and 5 µM with PEDV and added to Vero cells for 3 h, followed by FC analysis to examine the infectivity.

PEDV-GFP [5] = test: Co-incubation antiviral assay, PEDV-GFP MOI=0.3, Vero cells (fluorescence microscopy and flow cytometry)
Protocol: as §1
Fig. 2 Effect of AMPs on the infectivity of PEDV (MOI=0.3). A) Experimental set-up of the ‘co-incubation assay’; Vero cells were subjected to 2 h exposure to a combination of AMPs and PEDV-GFP. Afterward, the supernatant was replaced, and the cells were incubated for an additional 24 h B) Fluorescent microscopy (20 × magnification) was performed to visualize the fluorescence signal of GFP in the presence of 1, 5, and 10 µM AMPs. The cell-only sample consists exclusively of cells while the no-peptide sample contains only PEDV-GFP, with no peptides present.
Fig. 3 Antiviral activity of AMPs as determined by flow cytometry (FC). A) The percentage of GFP-positive cells following a 2 h incubation with a combination of PEDV and AMPs. […] The values reported here depict the average ± SD derived from three independent experiments performed in duplicate. * p < 0.05; ** p < 0.01.

Question: With “LLGDFFRKSKEKIGKEFKRIVQRIKDFLRNLVPRTES [LL-37, human cathelicidin antimicrobial peptide, 37 residues]” as the sequence, how does the “antiviral activity in post-incubation assay, in words” value (PEDV-GFP [1]) read?
Answer: very moderate effect

Question: And the “% infected cells (FC), co-incubation at MOI=1” value (PEDV [2]; 10 µM peptide, PEDV MOI=1, Vero cells, no-peptide control almost 100%)?
Answer: 30%

Question: And the “antiviral effect at MOI=1, in words” value (PEDV [2]; PEDV MOI=1, co-incubation, Vero cells, FC)?
Answer: remained strong

Question: And the “virus infectivity, peptide pre-incubated with beads before PEDV introduction” value (PEDV [3]; Capto Core 700 beads, Vero cells)?
Answer: minimal effects on virus infectivity

Question: What about the “virus infectivity, peptide incubated with PEDV without beads” value (PEDV [3]; no Capto Core 700 beads, Vero cells) of the same sequence?
Answer: a decrease in virus infectivity

Question: What about the “antiviral activity when peptide is combined with virus and beads” value (PEDV [3]; peptide + PEDV, then Capto Core 700 beads 1 h at 4 °C, supernatant applied to Vero cells) of the same sequence?
Answer: lost its inhibitory effect

Question: And the “prevention of PEDV-GFP entry into Vero cells, extended AMP panel, in words” value (PEDV-GFP [4])?
Answer: strong antiviral activity

Question: What about the “percentage of GFP-positive cells (FC), co-incubation” value (PEDV-GFP [5]; 10 µM peptide, PEDV-GFP MOI=0.3, 2 h co-incubation then 24 h, no-peptide control approximately 35%, three independent experiments in duplicate, Fig. 3A) of the same sequence?
Answer: 1–2%

Question: What about the “infected cells by fluorescent microscopy, co-incubation” value (PEDV-GFP [5]; PEDV-GFP MOI=0.3, 5 and 10 µM peptide, 2 h co-incubation then 24 h, compared to control without peptide, Fig. 2B) of the same sequence?
Answer: reduced numbers of infected cells
